Literature values in patent US20140221490A1, “METHODS OF TREATING PAIN” (Hospira, Inc., priority 2011, published 2014).
Read-outs that look alike come from different tables or passages of the source.

Details: cited from earlier work; for Prot. bind., drug fraction bound to protein (fP): plasma; for Cmax: read-out: Cmax, maximum drug concentration in plasma, based on the drug's pharmacokinetics and administration of a normal drug dose; for K1:1, stability constant of 1:1 inclusion complex with HPβCD: literature reference

| Structure (SMILES) | Vd, volume of distribution | Prot. bind., drug fraction bound to protein (fP) | Cmax | K1:1, stability constant of 1:1 inclusion complex with HPβCD | K1:1, stability constant of 1:1 inclusion complex with HPβCD (listed as fenofibrate) | K1:1, stability constant of 1:1 inclusion complex with HPβCD (listed as telmisartan) |
| --- | --- | --- | --- | --- | --- | --- |
| Clc1ccc(COC(Cn2ccnc2)c2ccc(Cl)cc2Cl)c(Cl)c1 (stereo not drawn) [Miconazole] | 20 L/kg | 92% | 0.029 µM |  |  |  |
| O=C(CCCN1CCC(O)(c2ccc(Cl)cc2)CC1)c1ccc(F)cc1 [Haloperidol] | 18 L/kg | 92% | 0.088 µM |  |  |  |
| C[C@]12CC[C@H]3[C@@H](CCC4=CC(=O)CC[C@@]43C)[C@@H]1CC[C@@H]2O [Testosterone] |  | 98% |  |  |  |  |
| C[C@H]1C[C@H]2[C@@H]3CCC4=CC(=O)C=C[C@]4(C)[C@@]3(F)[C@@H](O)C[C@]2(C)[C@@]1(O)C(=O)CO [Cilest (betamethasone), betamethasone] |  | 64% | 0.29 µM | 3,000^16 M^−1 |  |  |
| C=CC1=C(C(=O)O)N2C(=O)[C@@H](NC(=O)/C(=N\OCC(=O)O)c3csc(N)n3)[C@H]2SC1 [Cefixime] | 1.0 L/kg |  | 360 µM | 1,400^9 M^−1 |  |  |
| O=C1[C@H](CC[C@H](O)c2ccc(F)cc2)[C@@H](c2ccc(O)cc2)N1c1ccc(F)cc1 [Ezetimibe] | 1.5 L/kg | 90% | 0.012 µM | 1,300^23 M^−1 |  |  |
| CCNC(=O)CCC/C=C\C[C@@H]1[C@@H](/C=C/[C@@H](O)CCc2ccccc2)[C@H](O)C[C@@H]1O [Bimatoprost] | 0.67 L/kg | 88% | 0.00019 µM | 1,900^i M^−1 |  |  |
| CC(C(=O)O)c1cccc(C(=O)c2ccccc2)c1 (stereo not drawn) [Ketoprofen] | 0.15 L/kg |  |  |  |  |  |
| CC(=O)Nc1nnc(S(N)(=O)=O)s1 [Acetazolamide] | 0.2 L/kg | 95% | 160 µM |  |  |  |
| CCCCN1CCCCC1C(=O)Nc1c(C)cccc1C (stereo not drawn) [Bupivacaine] | 1.0 L/kg | 95% | 6.9 µM | 13^5 M^−1 |  |  |
| CC1(C)S[C@@H]2[C@H](NC(=O)[C@H](N)c3ccc(O)cc3)C(=O)N2[C@H]1C(=O)O [Amoxicillin] | 0.3 L/kg | 20% | 65 µM |  |  |  |
| COC(=O)C1=C(C)NC(C)=C(C(=O)OCCN(C)Cc2ccccc2)C1c1cccc([N+](=O)[O-])c1 (stereo not drawn) [Nicardipine] | 8.3 L/kg |  | 0.53 µM |  |  |  |
| Cc1nccn1CC1CCc2c(c3ccccc3n2C)C1=O (stereo not drawn) [Ondansetron] | 1.7 L/kg | 75% | 0.9 µM | 180^39 M^−1 |  |  |
| O=C(N[C@H](CO)[C@H](O)c1ccc([N+](=O)[O-])cc1)C(Cl)Cl [Chloramphenicol] | 0.80 L/kg | 80% | 130 µM |  |  |  |
| CCC1=C(C)CN(C(=O)NCCc2ccc(S(=O)(=O)NC(=O)N[C@H]3CC[C@H](C)CC3)cc2)C1=O [Glimepride] |  | 99.5% |  |  |  |  |
| COc1ccc2cc(CCC(C)=O)ccc2c1 [Nabumetone] | 0.2 L/kg | 99% | 160 µM | 3,000^35 M^−1 |  |  |
| C[C@]12C=CC(=O)C=C1CC[C@@H]1[C@@H]2[C@@H](O)C[C@@]2(C)[C@H]1CC[C@]2(O)C(=O)CO [Prednisolone] | 1.5 L/kg | 90% | 1.3 µM | 2,400^42 M^−1 |  |  |
| CN1CC(=O)N2[C@H](c3ccc4c(c3)OCO4)c3[nH]c4ccccc4c3C[C@@H]2C1=O [Tadalafil] | 0.9 L/kg | 94% | 1.3 µM | 360^46 M^−1 |  |  |
| O=C(O)Cc1ccccc1Nc1c(Cl)cccc1Cl [Diclofenac Na, diclofenac sodium] | 0.17 L/kg | 99.5% | 13 µM |  |  |  |
| NC(=O)N1c2ccccc2C=Cc2ccccc21 [Carbamazepine] | 1.4 L/kg | 75% | 34 µM | 630^6 M^−1 |  |  |
| CC(C)c1cccc(C(C)C)c1O [Propofol] |  | 99% |  |  |  |  |
| COc1ccc2[nH]c([S+]([O-])Cc3ncc(C)c(OC)c3C)nc2c1 (stereo not drawn) [Omeprazole] | 0.35 L/kg | 96% | 4.1 µM | 70^38 M^−1 |  |  |
| COc1ccnc(C[S+]([O-])c2nc3ccc(OC(F)F)cc3[nH]2)c1OC (stereo not drawn) [Pantoprazole] | 0.15 L/kg | 98% | 6.5 µM | 420^41 M^−1 |  |  |

| Structure (SMILES) | Vd, volume of distribution | Prot. bind., drug fraction bound to protein (fP) | Cmax | K1:1, stability constant of 1:1 inclusion complex with HPβCD | K1:1, stability constant of 1:1 inclusion complex with HPβCD (listed as fenofibrate) | K1:1, stability constant of 1:1 inclusion complex with HPβCD (listed as telmisartan) |
| --- | --- | --- | --- | --- | --- | --- |
| CC(=O)Nc1ccc(O)cc1 [Acetaminophen] | 0.95 L/kg | 20% | 50 µM |  |  |  |
| CCCc1nn(C)c2c(=O)[nH]c(-c3cc(S(=O)(=O)N4CCN(C)CC4)ccc3OCC)nc12 [Sildenafil] | 1.5 L/kg | 96% | 0.93 µM |  |  |  |
| NS(=O)(=O)c1cc(C2(O)NC(=O)c3ccccc32)ccc1Cl (stereo not drawn) [Chlortalidone (chlorthalidone), chlorthalidone] | 4.0 L/kg | 75% | 19 µM | 115^14 M^−1 |  |  |
| C[C@]12CC[C@@H]3c4ccc(O)cc4CC[C@H]3[C@@H]1CC[C@@H]2O [Estradiol] | 1 L/kg | 97% | 0.00053 µM | 2,000^22 M^−1 |  |  |
| CC(C)Cc1ccc(C(C)C(=O)O)cc1 (stereo not drawn) [Ibuprofen] |  |  | 280 µM | 5,000^31 M^−1 |  |  |
| Nc1nc2c(ncn2COCCO)c(=O)[nH]1 [Acyclovir] |  |  | 7.2 µM | 770^2 M^−1 |  |  |
| Cc1ccc(-c2cc(C(F)(F)F)nn2-c2ccc(S(N)(=O)=O)cc2)cc1 [Celecoxib] | 6.5 L/kg | 97% | 1.9 µM | 630^10 M^−1 |  |  |
| CC(C(=O)O)c1ccc(-c2ccccc2)c(F)c1 (stereo not drawn) [Flurbiprofen] | 0.12 L/kg | 99% | 62 µM | 7,500^26 M^−1 |  |  |
| CNC1=Nc2ccc(Cl)cc2C(c2ccccc2)=[N+]([O-])C1 [Chlordiazepoxide] |  | 96% |  |  |  |  |
| CN[C@H]1CC[C@@H](c2ccc(Cl)c(Cl)c2)c2ccccc21 [Sertaline] |  | 98% |  |  |  |  |
| CC(C)OC(=O)C(C)(C)Oc1ccc(C(=O)c2ccc(Cl)cc2)cc1 [Fenofibrate] | 0.9 L/kg | 99% | 28 µM | 2^24 M^−1 | 2 M⁻¹ |  |
| C=CC1=C(C(=O)O)N2C(=O)[C@@H](NC(=O)/C(=N\O)c3csc(N)n3)[C@H]2SC1 [Cefdinir] | 0.35 L/kg | 70% | 7.3 µM | 59^8 M^−1 |  |  |
| CC(=O)Oc1ccccc1C(=O)O [Acetylsalicylic acid] | 0.15 L/kg | 80% | 530 µM | 100^l M^−1 |  |  |
| O=C(O)CCc1nc(-c2ccccc2)c(-c2ccccc2)o1 [Oxaprozin] | 0.15 L/kg | 99% | 780 µM |  |  |  |
| CC(=O)O[C@]1(C(C)=O)CC[C@H]2[C@@H]3C[C@H](C)C4=CC(=O)CC[C@]4(C)[C@H]3CC[C@@]21C [Medroxyprogesterone acetate] |  | 90% | 1.8 µM | 260^33 M^−1 |  |  |
| CC(=O)OCC1=C(C(=O)O)N2C(=O)[C@@H](NC(=O)Cc3cccs3)[C@H]2SC1 [Cephalothin] | 0.26 L/kg | 80% | 76 µM | 70^11 M^−1 |  |  |
| CCCc1nc2c(C)cc(-c3nc4ccccc4n3C)cc2n1Cc1ccc(-c2ccccc2C(=O)O)cc1 [Telmisartan] | 7 L/kg | 99% | 2.8 µM | 40,000^47 M^−1 |  | 40,000 M^−1 |
| Cc1ncc2n1-c1ccc(Cl)cc1C(c1ccccc1F)=NC2 [Midazolam] |  | 97% |  |  |  |  |
| Clc1ccc(COC(Cn2ccnc2)c2ccc(Cl)cc2Cl)cc1 (stereo not drawn) [Econazole nitrate] |  | (96) % | 5.5 µM | 13^20 M^−1 |  |  |
| COc1ccccc1OCCNCC(O)COc1cccc2[nH]c3ccccc3c12 (stereo not drawn) [Carvedilol] | 1.7 L/kg | 98% | 400 µM | 580^7 M^−1 |  |  |
| CCc1cccc2c3c([nH]c12)C(CC)(CC(=O)O)OCC3 (stereo not drawn) [Etodolac] | 0.4 L/kg | 99% | 170 µM |  |  |  |
